Molecules are shown by their SMILES. Active and inactive are the calls of the source. No cut-off for these calls is given here.

This passage reports IC50, inhibition and Activity results from ChEMBL document CHEMBL1141700, “Discovery of the catechol structural moiety as a Stat3 SH2 domain inhibitor by virtual screening” (Bioorg Med Chem Lett, 2008).

Experiment [1] deals with T1, Signal transducer and activator of transcription 3 (Homo sapiens, UniProt P40763). The experiment is described as follows: Inhibition of Stat3 binding to DNA in human U266 whole cell lysate by ELISA. Format: cell-free, U-266. In general terms: ELISA stands for enzyme-linked immunosorbent assay.
In experiment [2] the target is T1, Signal transducer and activator of transcription 3. The experiment is described as follows: Inhibition of Stat3 binding to DNA in human U266 whole cell lysate at 100 ug/ml by ELISA. The following applies: U-266. Format: cell-free.
Experiment [3] has the same target. The experiment is described as follows: Inhibition of Stat3 phosphorylation in human U266 whole cell lysate by Western blotting. Format: cell-based. The following applies: U-266. Background: In western blotting, separated proteins are transferred to a membrane and probed.
Experiment [4] addresses Signal transducer and activator of transcription 3 (Mus musculus) (UniProt P42227). In words: Displacement of pTyr705 from flag-tagged mouse Stat3 SH2 domain expressed in HEK293 cells up to 200 uM by fluorescence polarization. For orientation: Polarisation of emitted light reports the rotation of a fluorescent probe.

T1 sequence (P40763 whole entry): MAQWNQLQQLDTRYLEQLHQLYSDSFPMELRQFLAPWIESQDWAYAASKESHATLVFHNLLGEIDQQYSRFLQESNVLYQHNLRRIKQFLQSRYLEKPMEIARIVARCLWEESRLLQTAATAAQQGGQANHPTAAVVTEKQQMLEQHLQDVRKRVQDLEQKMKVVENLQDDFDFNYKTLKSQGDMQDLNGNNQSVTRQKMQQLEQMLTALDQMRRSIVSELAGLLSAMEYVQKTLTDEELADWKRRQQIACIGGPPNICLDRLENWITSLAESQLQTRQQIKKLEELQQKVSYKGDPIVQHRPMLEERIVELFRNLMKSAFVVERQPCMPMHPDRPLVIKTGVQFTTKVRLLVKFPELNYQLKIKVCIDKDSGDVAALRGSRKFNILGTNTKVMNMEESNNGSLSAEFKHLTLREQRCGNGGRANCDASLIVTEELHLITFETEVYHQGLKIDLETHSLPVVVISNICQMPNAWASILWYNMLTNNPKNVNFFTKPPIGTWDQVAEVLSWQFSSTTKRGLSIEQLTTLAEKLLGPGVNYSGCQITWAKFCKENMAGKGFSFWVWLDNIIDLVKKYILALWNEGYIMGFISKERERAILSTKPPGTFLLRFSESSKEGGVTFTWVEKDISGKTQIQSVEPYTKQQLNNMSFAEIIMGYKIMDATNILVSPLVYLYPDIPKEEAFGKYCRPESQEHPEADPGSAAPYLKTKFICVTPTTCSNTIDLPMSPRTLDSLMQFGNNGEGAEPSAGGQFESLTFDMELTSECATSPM
Signal transducer and activator of transcription 3 (Mus musculus), sequence (P42227 whole entry, the tested form may be a part): as the sequence (P40763 whole entry) above, with E760D counted along it

On to `Cc1oc(C)c2c(=O)cc(-c3ccc(O)c(O)c3)cc(O)c12`, for which, in experiment [1], the IC50 – broadly, the concentration that gives 50% inhibition – was found to be 106 µM.

With `Oc1ccc(CC/N=C/c2c(O)ccc3ccccc23)cc1O`, in experiment [2], the inhibition (in general, the relative decrease from the control value, in per cent) stood at 50%.

Consider `Oc1cccc(-c2nc3ccccc3s2)c1O`, for which the inhibition in experiment [2] stood at 56%.

In the case of `O=C(c1ccc(O)c(O)c1)c1cnc(NCc2ccc(F)cc2)s1`, the inhibition in experiment [2] stood at 57%.

Compound `O=C(O)c1ccccc1/N=C\c1ccc(O)c(O)c1` gave an inhibition in experiment [2] of 8%.

In turn, `O=C(Cc1ccc2c(c1)OCO2)NCCc1ccc(O)c(O)c1` yielded an inhibition in experiment [2] of 40%. In experiment [1], this compound came in with an IC50 of 357 µM. Further, in experiment [3], the result was Active. In addition, in experiment [4], the result was inactive.

Take `Oc1ccc(CC/N=C/c2cccc(O)c2O)cc1O`: the inhibition in experiment [2] is 51%.
